Measured values: the kinase profiling compilation of Christmann-Franck et al. (2016)

Experiments:
Assay in all cases: radiometric filter-binding kinase assay, Kinase HotSpot
Details in all cases: compound 0.5 µM; ATP 10 µM
PAK2 (human) = PAK2 (human) (UniProt Q13177)
ACVR1B (human) = ACVR1B (human) (UniProt P36896)
MAP4K2 (human) = MAP4K2 (human) (UniProt Q12851)
PDGFRB (human) = PDGFRB (human) (UniProt P09619)
AURKC (human) = AURKC (human) (UniProt Q9UQB9)
EGFR (human) = EGFR (human) (UniProt P00533)
CAMKK2 (human) = CAMKK2 (human) (UniProt Q96RR4)
AURKA (human) = AURKA (human) (UniProt O14965)
TTK (human) = TTK (human) (UniProt P33981)
MAP3K14 (human) = MAP3K14 (human) (UniProt Q99558)
LIMK1 (human) = LIMK1 (human) (UniProt P53667)
PLK1 (human) = PLK1 (human) (UniProt P53350)
MAPK14 (human) = MAPK14 (human) (UniProt Q16539)
FRK (human) = FRK (human) (UniProt P42685)
EPHA4 (human) = EPHA4 (human) (UniProt P54764)
PASK (human) = PASK (human) (UniProt Q96RG2)
EPHA5 (human) = EPHA5 (human) (UniProt P54756)
CDK2 CCNE1 (human) = CDK2 CCNE1 (human) (UniProt P24941+P24864)
DAPK2 (human) = DAPK2 (human) (UniProt Q9UIK4)
FGFR2 (human) = FGFR2 (human) (UniProt P21802)
[1] = biological target: JAK1 JH1 catalytic (human) (UniProt P23458)
MKNK2 (human) = MKNK2 (human) (UniProt Q9HBH9)
AXL (human) = AXL (human) (UniProt P30530)
NEK2 (human) = NEK2 (human) (UniProt P51955)
MAPKAPK2 (human) = MAPKAPK2 (human) (UniProt P49137)
OXSR1 (human) = OXSR1 (human) (UniProt O95747)
CAMK2B (human) = CAMK2B (human) (UniProt Q13554)
CAMK2D (human) = CAMK2D (human) (UniProt Q13557)
ROCK1 (human) = ROCK1 (human) (UniProt Q13464)
CHEK1 (human) = CHEK1 (human) (UniProt O14757)
DYRK1A (human) = DYRK1A (human) (UniProt Q13627)
JAK2 JH1 JH2 (human) = JAK2 JH1 JH2 (human) (UniProt O60674)
ERBB2 (human) = ERBB2 (human) (UniProt P04626)
ABL1 (human) = ABL1 (human) (UniProt P00519)
TXK (human) = TXK (human) (UniProt P42681)
KIT (human) = KIT (human) (UniProt P10721)
LCK (human) = LCK (human) (UniProt P06239)
SRPK1 (human) = SRPK1 (human) (UniProt Q96SB4)
CSNK2A1 (human) = CSNK2A1 (human) (UniProt P68400)
RET (human) = RET (human) (UniProt P07949)
EPHB4 (human) = EPHB4 (human) (UniProt P54760)
CLK1 (human) = CLK1 (human) (UniProt P49759)

Sequence of EGFR (human) (P00533 whole entry, looked up): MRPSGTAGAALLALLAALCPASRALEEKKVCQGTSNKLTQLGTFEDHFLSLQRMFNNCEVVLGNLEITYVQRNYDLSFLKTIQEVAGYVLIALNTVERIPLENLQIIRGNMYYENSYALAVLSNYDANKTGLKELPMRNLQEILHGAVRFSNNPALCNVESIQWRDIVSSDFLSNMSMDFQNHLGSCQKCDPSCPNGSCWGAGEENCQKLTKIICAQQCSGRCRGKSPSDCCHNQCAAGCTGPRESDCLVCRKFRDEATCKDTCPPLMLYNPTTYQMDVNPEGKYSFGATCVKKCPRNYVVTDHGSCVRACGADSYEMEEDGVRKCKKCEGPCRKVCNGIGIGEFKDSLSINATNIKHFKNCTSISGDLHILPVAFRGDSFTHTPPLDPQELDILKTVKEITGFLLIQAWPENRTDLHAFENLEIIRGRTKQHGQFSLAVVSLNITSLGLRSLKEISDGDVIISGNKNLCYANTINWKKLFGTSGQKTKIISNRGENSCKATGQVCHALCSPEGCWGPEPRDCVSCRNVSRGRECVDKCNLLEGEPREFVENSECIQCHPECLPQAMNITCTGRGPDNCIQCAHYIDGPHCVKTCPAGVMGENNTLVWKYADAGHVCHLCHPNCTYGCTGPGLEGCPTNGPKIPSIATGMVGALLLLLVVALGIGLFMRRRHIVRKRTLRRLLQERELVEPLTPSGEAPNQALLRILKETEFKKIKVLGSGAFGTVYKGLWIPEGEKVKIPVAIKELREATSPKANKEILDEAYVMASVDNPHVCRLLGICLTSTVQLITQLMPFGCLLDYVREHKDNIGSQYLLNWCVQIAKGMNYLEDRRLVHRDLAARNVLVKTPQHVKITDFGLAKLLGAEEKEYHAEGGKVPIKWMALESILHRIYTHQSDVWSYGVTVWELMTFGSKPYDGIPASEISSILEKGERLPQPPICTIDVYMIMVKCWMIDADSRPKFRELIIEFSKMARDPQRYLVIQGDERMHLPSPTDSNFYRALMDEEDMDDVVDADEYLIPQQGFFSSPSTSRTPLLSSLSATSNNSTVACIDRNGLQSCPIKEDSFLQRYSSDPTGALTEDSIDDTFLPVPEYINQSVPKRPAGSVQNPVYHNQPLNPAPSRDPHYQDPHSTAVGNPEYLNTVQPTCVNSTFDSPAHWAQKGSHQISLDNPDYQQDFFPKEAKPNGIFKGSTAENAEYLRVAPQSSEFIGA
Sequence of CDK2 CCNE1 (human) (P24864 whole entry, looked up, other chains not shown): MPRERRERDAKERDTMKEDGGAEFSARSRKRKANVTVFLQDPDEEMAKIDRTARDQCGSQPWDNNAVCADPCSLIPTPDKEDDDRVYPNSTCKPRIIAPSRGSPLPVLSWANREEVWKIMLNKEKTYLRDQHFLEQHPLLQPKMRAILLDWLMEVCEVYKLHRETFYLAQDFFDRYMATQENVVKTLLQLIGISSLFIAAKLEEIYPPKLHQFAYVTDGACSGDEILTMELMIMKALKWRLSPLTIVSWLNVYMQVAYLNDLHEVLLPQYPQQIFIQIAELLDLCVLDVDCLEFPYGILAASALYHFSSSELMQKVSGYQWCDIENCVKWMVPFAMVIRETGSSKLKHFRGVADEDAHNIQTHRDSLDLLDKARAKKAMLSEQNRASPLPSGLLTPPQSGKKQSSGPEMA
Sequence of SRPK1 (human) (Q96SB4 whole entry, looked up): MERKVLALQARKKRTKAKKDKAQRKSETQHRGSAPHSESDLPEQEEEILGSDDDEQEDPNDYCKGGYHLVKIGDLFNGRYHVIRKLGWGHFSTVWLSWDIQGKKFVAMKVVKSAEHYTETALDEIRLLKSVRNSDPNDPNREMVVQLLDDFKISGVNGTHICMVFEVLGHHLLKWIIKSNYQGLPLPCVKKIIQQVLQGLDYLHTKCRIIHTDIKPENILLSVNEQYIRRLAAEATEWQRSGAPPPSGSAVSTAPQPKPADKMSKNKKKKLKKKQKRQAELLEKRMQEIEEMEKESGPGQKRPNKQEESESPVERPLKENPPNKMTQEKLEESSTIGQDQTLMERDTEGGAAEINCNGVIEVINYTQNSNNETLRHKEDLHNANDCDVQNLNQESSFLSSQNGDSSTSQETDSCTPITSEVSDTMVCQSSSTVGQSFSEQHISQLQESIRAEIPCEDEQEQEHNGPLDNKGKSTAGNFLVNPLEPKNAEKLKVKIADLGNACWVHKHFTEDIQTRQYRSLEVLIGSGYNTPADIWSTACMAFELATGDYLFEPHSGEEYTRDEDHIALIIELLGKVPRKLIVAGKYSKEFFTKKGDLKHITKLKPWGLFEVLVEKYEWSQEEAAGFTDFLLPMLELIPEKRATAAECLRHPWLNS
Sequence of MAP3K14 (human) (Q99558 whole entry, looked up): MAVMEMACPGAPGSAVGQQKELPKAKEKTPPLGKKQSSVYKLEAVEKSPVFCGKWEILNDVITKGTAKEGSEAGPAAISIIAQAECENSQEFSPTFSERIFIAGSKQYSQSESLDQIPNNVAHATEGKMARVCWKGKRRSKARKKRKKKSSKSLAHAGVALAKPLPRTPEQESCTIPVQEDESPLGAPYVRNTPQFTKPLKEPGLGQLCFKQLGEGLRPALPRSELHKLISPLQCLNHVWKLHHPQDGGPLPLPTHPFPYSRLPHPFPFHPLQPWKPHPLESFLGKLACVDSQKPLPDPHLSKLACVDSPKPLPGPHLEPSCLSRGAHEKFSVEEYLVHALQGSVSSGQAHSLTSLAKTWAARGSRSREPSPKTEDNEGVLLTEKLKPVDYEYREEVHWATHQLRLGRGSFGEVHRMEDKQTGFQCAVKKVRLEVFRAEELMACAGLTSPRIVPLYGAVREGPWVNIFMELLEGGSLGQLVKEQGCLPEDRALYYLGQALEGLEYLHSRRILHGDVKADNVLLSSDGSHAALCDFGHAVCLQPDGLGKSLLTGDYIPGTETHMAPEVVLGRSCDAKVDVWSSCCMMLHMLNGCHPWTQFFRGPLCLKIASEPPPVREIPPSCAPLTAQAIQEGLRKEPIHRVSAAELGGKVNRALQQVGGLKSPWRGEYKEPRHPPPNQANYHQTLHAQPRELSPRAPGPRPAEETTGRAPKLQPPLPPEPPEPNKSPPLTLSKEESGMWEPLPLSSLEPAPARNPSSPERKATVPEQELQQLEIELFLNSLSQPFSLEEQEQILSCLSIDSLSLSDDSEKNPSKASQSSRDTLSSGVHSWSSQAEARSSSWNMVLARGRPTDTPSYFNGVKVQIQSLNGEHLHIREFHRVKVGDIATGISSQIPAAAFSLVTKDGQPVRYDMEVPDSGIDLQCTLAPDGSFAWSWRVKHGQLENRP
Sequence of ABL1 (human) (P00519 whole entry, looked up): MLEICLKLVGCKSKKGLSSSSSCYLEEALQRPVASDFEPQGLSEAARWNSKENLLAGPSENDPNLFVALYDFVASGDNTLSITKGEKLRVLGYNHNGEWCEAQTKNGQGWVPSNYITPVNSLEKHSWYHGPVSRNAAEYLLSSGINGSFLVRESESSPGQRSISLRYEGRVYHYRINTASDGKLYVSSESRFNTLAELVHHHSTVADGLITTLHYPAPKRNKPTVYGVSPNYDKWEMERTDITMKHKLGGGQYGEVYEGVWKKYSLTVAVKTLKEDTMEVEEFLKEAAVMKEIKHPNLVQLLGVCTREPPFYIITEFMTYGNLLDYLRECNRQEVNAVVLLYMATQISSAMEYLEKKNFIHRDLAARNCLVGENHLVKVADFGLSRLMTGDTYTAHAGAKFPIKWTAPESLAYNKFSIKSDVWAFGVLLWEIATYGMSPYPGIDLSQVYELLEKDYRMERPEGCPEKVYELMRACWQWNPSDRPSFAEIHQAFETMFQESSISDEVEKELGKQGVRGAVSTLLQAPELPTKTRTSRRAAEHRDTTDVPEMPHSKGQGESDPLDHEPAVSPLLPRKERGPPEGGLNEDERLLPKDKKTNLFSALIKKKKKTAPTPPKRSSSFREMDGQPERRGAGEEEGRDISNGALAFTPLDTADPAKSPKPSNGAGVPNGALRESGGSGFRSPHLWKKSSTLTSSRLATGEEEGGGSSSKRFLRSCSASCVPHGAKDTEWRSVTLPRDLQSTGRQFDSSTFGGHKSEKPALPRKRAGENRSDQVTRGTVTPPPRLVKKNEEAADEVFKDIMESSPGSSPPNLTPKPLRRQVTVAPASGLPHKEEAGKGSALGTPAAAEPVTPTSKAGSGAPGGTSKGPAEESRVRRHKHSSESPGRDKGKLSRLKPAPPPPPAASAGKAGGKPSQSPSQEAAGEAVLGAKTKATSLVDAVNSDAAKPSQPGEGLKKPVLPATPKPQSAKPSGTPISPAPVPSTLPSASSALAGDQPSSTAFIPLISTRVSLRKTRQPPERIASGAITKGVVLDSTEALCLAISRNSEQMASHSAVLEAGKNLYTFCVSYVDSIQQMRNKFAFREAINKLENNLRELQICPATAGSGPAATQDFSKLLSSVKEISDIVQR
Sequence of AURKA (human) (O14965 whole entry, looked up): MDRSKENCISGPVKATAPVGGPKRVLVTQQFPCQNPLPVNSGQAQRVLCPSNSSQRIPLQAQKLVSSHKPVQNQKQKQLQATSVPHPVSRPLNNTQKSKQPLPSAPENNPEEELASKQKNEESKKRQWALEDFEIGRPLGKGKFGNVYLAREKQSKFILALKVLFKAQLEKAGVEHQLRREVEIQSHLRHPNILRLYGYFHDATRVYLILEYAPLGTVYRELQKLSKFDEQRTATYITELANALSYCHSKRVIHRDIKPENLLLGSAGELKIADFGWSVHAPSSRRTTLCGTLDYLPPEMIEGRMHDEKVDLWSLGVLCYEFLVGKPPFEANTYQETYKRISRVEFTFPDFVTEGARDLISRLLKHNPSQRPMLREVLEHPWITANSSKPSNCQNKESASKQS
Sequence of AURKC (human) (Q9UQB9 whole entry, looked up): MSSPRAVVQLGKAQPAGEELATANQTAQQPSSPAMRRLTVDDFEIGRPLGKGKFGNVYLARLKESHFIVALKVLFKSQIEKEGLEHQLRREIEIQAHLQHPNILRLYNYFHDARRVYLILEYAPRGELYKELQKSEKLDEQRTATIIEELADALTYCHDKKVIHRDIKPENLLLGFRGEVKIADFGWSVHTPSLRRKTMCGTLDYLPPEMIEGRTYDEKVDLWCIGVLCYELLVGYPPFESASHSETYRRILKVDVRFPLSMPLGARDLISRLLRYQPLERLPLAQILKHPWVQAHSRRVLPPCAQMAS

## Ic1cccc(CSc2nnc(-c3ccncc3)o2)c1
PAK2 (human)
  residual activity: 97.6%
ACVR1B (human)
  residual activity: 102%
MAP4K2 (human)
  residual activity: 112%
PDGFRB (human)
  residual activity: 97.7%
AURKC (human)
  residual activity: 91.2%
EGFR (human)
  residual activity: 97.1%
CAMKK2 (human)
  residual activity: 85.1%
AURKA (human)
  residual activity: 95.8%
TTK (human)
  residual activity: 103%
MAP3K14 (human)
  residual activity: 88.3%
LIMK1 (human)
  residual activity: 85.8%
PLK1 (human)
  residual activity: 98.6%
MAPK14 (human)
  residual activity: 99.3%
FRK (human)
  residual activity: 85.5%
EPHA4 (human)
  residual activity: 105%
PASK (human)
  residual activity: 100%
EPHA5 (human)
  residual activity: 100%
CDK2 CCNE1 (human)
  residual activity: 102%
DAPK2 (human)
  residual activity: 108%
FGFR2 (human)
  residual activity: 101%
[1]
  residual activity: 103%
MKNK2 (human)
  residual activity: 91.5%
AXL (human)
  residual activity: 99.2%
NEK2 (human)
  residual activity: 100%
MAPKAPK2 (human)
  residual activity: 93.5%
OXSR1 (human)
  residual activity: 105%
CAMK2B (human)
  residual activity: 95.4%
CAMK2D (human)
  residual activity: 96.8%
ROCK1 (human)
  residual activity: 88%
CHEK1 (human)
  residual activity: 96.3%
DYRK1A (human)
  residual activity: 96.4%
JAK2 JH1 JH2 (human)
  residual activity: 107%
ERBB2 (human)
  residual activity: 99.6%
ABL1 (human)
  residual activity: 107%
TXK (human)
  residual activity: 96.8%
KIT (human)
  residual activity: 99.8%
LCK (human)
  residual activity: 98.5%
SRPK1 (human)
  residual activity: 103%
CSNK2A1 (human)
  residual activity: 97.3%
RET (human)
  residual activity: 103%
EPHB4 (human)
  residual activity: 101%
CLK1 (human)
  residual activity: 99.8%

## CN(C)S(=O)(=O)c1ccc2c(c1)/C(=C/c1cc3c([nH]1)CCCC3)C(=O)N2
PAK2 (human)
  residual activity: 92.5%
ACVR1B (human)
  residual activity: 105%
MAP4K2 (human)
  residual activity: 20.8%
PDGFRB (human)
  residual activity: 96.5%
AURKC (human)
  residual activity: 33.8%
EGFR (human)
  residual activity: 93.4%
CAMKK2 (human)
  residual activity: 27.3%
AURKA (human)
  residual activity: 16.1%
TTK (human)
  residual activity: 89.7%
MAP3K14 (human)
  residual activity: 94.6%
LIMK1 (human)
  residual activity: 60.7%
PLK1 (human)
  residual activity: 101%
MAPK14 (human)
  residual activity: 98.8%
FRK (human)
  residual activity: 86%
EPHA4 (human)
  residual activity: 91.3%
PASK (human)
  residual activity: 95.6%
EPHA5 (human)
  residual activity: 85.1%
CDK2 CCNE1 (human)
  residual activity: 85.5%
DAPK2 (human)
  residual activity: 93.5%
FGFR2 (human)
  residual activity: 49.3%
[1]
  residual activity: 66.8%
MKNK2 (human)
  residual activity: 84.1%
AXL (human)
  residual activity: 39.7%
NEK2 (human)
  residual activity: 98%
MAPKAPK2 (human)
  residual activity: 101%
OXSR1 (human)
  residual activity: 89.1%
CAMK2B (human)
  residual activity: 70%
CAMK2D (human)
  residual activity: 73.2%
ROCK1 (human)
  residual activity: 95.2%
CHEK1 (human)
  residual activity: 76.3%
DYRK1A (human)
  residual activity: 81.1%
JAK2 JH1 JH2 (human)
  residual activity: 46.1%
ERBB2 (human)
  residual activity: 101%
ABL1 (human)
  residual activity: 57.3%
TXK (human)
  residual activity: 96%
KIT (human)
  residual activity: 60.7%
LCK (human)
  residual activity: 34.7%
SRPK1 (human)
  residual activity: 63.8%
CSNK2A1 (human)
  residual activity: 105%
RET (human)
  residual activity: 6.29%
EPHB4 (human)
  residual activity: 85.8%
CLK1 (human)
  residual activity: 82.6%
